Laboratory results published in US8895695B2, “Template-fixed beta-hairpin peptidomimetics with CXCR4 antagonizing activity” (priority 2003, dated 2014).
Bridge positions count the residues as written; N and C are the ends. Square brackets hold non-standard residues; d marks the D form. Peptide text beside a SMILES is read from it. Phe(4-F) = N[C@@H](Cc1ccc(F)cc1)C(=O)O; 2Nal = N[C@@H](Cc1ccc2ccccc2c1)C(=O)O; Cit = NC(=O)NCCC[C@H](N)C(=O)O; Orn = NCCC[C@H](N)C(=O)O; Dab = NCC[C@H](N)C(=O)O

What was measured:
CXCR4 = CXCR4 (Homo sapiens, UniProt P61073); test: Ca2+-assay method 2 (Flexstation, SDF-1 induced calcium mobilization); type: cell-based; design: expressed in transfected cells; host or cells: mouse pre-B cell line 300-19; details: method 2 (Ex. 54-160), mouse pre-B cell line 300-19 with human CXCR4, 10 nM SDF-1; read-out: IC50 (nM) Ca^2+ assay
Experimental: 2.2. Ca^2+-Assay: CXCR4-Antagonizing Activity of the Peptides.
The cells were batch loaded with the Calcium 3 Assay kit (Molecular Devices) in assay buffer (Hanks Balanced salt solution, HBSS, 20 mM HEPES, pH 7.4, 0.1% BSA) for 1 h at room temperature and then 200,000 labeled cells were dispensed into black 96 well assays plates (Costar No. 3603). A 20-fold concentrated solution of peptide in assay buffer was added to the cells and the whole plate was centrifuged to settle the cells to the bottom of the wells. Calcium mobilization induced by 10 nM stromal-derived factor-1 (SDF-1) was measured in the Flexstation 384 (excitation, 485 nM; emission, 525 nM) for 90 seconds. A maximal change in fluorescence response above baseline was used to calculate antagonist activity. The data for dose response curves (antagonist concentration versus % maximum response) were fitted to a four parameter logistic equation using SoftmaxPro 4.6 (Molecular Devices), from which IC50% values were calculated.

in vitro = details: human
Experimental: Each peptide concentration was assayed in triplicate. […] Wells were then washed once with PBS and subsequently 100 μl MTT reagent (0.5 mg/mL in medium RPMI1640 and, respectively, DMEM) was added to the wells. This was incubated at 37° C. for 2 hours and subsequently the medium was aspirated and 100 μl isopropanol was added to each well. […] For each concentration averages were calculated from triplicates. The percentage of growth was calculated as follows: (OD595peptide-OD595Tz-OD595Empty well)/(OD595Tz-OD595Empty well)×100% and was plotted for each peptide concentration.
‘CCR5’ cells were cultured in DMEM medium with 4500 mg/ml glucose, 10% fetal bovine serum (FBS), supplemented with 50 U/ml Penicillin and 50 μg/ml Streptomycin (Pen/Strept.). Hut/4-3 cells were maintained in RPMI medium, 10% FBS, supplemented with Pen/Strept. and 10 mM HEPES. HELA cells and CCRF-CEM cells were maintained in RPMI1640 plus 5% FBS, Pen/Strept and 2 mM L-Glutamine. Cos-7 cells were grown in DMEM medium with 4500 mg/ml glucose supplemented with 10% FCS, Pen/Strept. and 2 mM L-Glutamine. All cell lines were grown at 37° C. at 5% CO2.

[1] = tested on: human red blood cells (hRBC); test: Hemolysis; type: cell-based
Experimental: The peptides were tested for their hemolytic activity against human red blood cells (hRBC). Fresh hRBC were washed three times with phosphate buffered saline (PBS) by centrifugation for 10 min at 2000×g. Peptides at a concentration of 100 μM were incubated with 20% v/v hRBC for 1 hour at 37° C. The final erythrocyte concentration was approximately 0.9×10^9 cells per ml. A value of 0% resp. 100% cell lysis was determined by incubation of the hRBC in the presence of PBS alone and respectively 0.1% Triton X-100 in H2O. The samples were centrifuged and the supernatant was 20-fold diluted in PBS buffer and the optical density (OD) of the sample at […] was measured. The 100% lyses value (OD540H2O) gave an OD540 of approximately 1.3-1.8. Percent hemolysis was calculated as follows: (OD540peptide/OD540H2O)×100%.
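Wherever GI50 is given: MTT reduction read as absorbance at 595 nm, blank-corrected and expressed as percent growth relative to the time-zero cell reading, triplicate wells per concentration.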

Chain of CXCR4 (P61073 whole entry): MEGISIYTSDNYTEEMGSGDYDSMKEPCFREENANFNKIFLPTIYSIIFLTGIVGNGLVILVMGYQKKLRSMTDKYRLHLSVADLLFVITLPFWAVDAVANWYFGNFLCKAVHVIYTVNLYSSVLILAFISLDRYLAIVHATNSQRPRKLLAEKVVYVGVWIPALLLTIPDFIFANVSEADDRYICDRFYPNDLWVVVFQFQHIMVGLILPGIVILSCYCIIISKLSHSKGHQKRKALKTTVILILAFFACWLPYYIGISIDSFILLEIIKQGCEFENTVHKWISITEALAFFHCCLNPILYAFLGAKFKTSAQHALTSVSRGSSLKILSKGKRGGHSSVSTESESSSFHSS

Row | SMILES | IC50 (CXCR4) [nM] | GI50 at 48 h (in vitro) [nM] | Hemolysis at 100 μM [1] [%]
1 | N=C(N)NCCC[C@@H]1NC(=O)[C@@H]2CSSC[C@H](NC(=O)[C@H](Cc3ccc4ccccc4c3)NC(=O)[C@H](CCCNC(=N)N)NC(=O)[C@H](CCCNC(=N)N)NC(=O)[C@H]3CCCN3C(=O)CNC1=O)C(=O)N[C@@H](Cc1ccc(O)cc1)C(=O)N[C@@H](CCC(N)=O)C(=O)N[C@@H](CCCCN)C(=O)N1CCC[C@@H]1C(=O)N1CCC[C@H]1C(=O)N[C@@H](Cc1ccc(O)cc1)C(=O)N[C@@H](CCCNC(=N)N)C(=O)N[C@@H](Cc1ccc(F)cc1)C(=O)N2 [Ex. 99] (cyclo(YR[Phe(4-F)]CRG[dP]RR[2Nal]CYQK[dP]P); disulfide 4-11) | 4.2 | 40000 | 1.1
2 | CSCC[C@@H]1NC(=O)[C@@H]2CCCN2C(=O)[C@H]2CCCN2C(=O)[C@H](CCCCN)NC(=O)[C@H](CCC(N)=O)NC(=O)[C@H](Cc2ccc(O)cc2)NC(=O)[C@@H]2CSSC[C@H](NC(=O)[C@H](CCCNC(N)=O)NC(=O)[C@H](CCCNC(=N)N)NC1=O)C(=O)N[C@@H](CCCNC(=N)N)C(=O)NCC(=O)N1CCC[C@@H]1C(=O)N[C@@H](CCCNC(=N)N)C(=O)N[C@@H](CCCNC(=N)N)C(=O)N[C@@H](Cc1ccc3ccccc3c1)C(=O)N2 [Ex. 91] (cyclo(MR[Cit]CRG[dP]RR[2Nal]CYQK[dP]P); disulfide 4-11) | 2.1 | 48000 | 0.2
3 | N=C(N)NCCC[C@@H]1NC(=O)[C@@H]2CSSC[C@H](NC(=O)[C@H](Cc3ccc4ccccc4c3)NC(=O)[C@H](CCCNC(=N)N)NC(=O)[C@H](CCCNC(=N)N)NC(=O)[C@H]3CCCN3C(=O)CNC1=O)C(=O)N[C@@H](Cc1ccc(O)cc1)C(=O)N[C@@H](CCC(N)=O)C(=O)N[C@@H](CCCCN)C(=O)N1CCC[C@@H]1C(=O)N1CCC[C@H]1C(=O)N[C@@H](Cc1ccc(O)cc1)C(=O)N[C@@H](CCCNC(=N)N)C(=O)N[C@@H](Cc1c[nH]cn1)C(=O)N2 [Ex. 70] (cyclo(YRHCRG[dP]RR[2Nal]CYQK[dP]P); disulfide 4-11) | 19.5 | 40000 | 0.2
4 | N=C(N)NCCC[C@@H]1NC(=O)[C@@H]2CSSC[C@H](NC(=O)[C@H](Cc3ccc4ccccc4c3)NC(=O)[C@H](CCCNC(=N)N)NC(=O)[C@H](CCCNC(=N)N)NC(=O)[C@H]3CCCN3C(=O)CNC1=O)C(=O)N[C@@H](Cc1ccc(O)cc1)C(=O)N[C@@H](CCC(N)=O)C(=O)N[C@@H](CCCCN)C(=O)N1CCC[C@@H]1C(=O)N1CCC[C@H]1C(=O)N[C@@H](CCC(N)=O)C(=O)N[C@@H](CCCNC(=N)N)C(=O)N[C@@H](CCCNC(N)=O)C(=O)N2 [Ex. 62] (cyclo(QR[Cit]CRG[dP]RR[2Nal]CYQK[dP]P); disulfide 4-11) | 1.8 | 65000 | 0.1
5 | N=C(N)NCCC[C@@H]1NC(=O)[C@@H]2CSSC[C@H](NC(=O)[C@H](Cc3c[nH]c4ccccc34)NC(=O)[C@H](CCCNC(=N)N)NC(=O)[C@H](CCCNC(=N)N)NC(=O)[C@H]3CCCN3C(=O)CNC1=O)C(=O)N[C@@H](Cc1ccc(O)cc1)C(=O)N[C@@H](CCCNC(N)=O)C(=O)N[C@@H](CCC(N)=O)C(=O)N1CCC[C@@H]1C(=O)N1CCC[C@H]1C(=O)N[C@@H](Cc1ccc(O)cc1)C(=O)N[C@@H](CCCNC(=N)N)C(=O)N[C@@H](CCCNC(N)=O)C(=O)N2 [Ex. 121] (cyclo(YR[Cit]CRG[dP]RRWCY[Cit]Q[dP]P); disulfide 4-11) | 6.5 | 79000 | 0
6 | CC(C)[C@@H]1NC(=O)[C@H](CCCNC(=N)N)NC(=O)[C@H](Cc2ccc(O)cc2)NC(=O)[C@@H]2CCCN2C(=O)[C@H]2CCCN2C(=O)[C@H](CCCCN)NC(=O)[C@H](CCC(N)=O)NC(=O)[C@H](Cc2ccc(O)cc2)NC(=O)[C@@H]2CSSC[C@H](NC1=O)C(=O)N[C@@H](CCCNC(=N)N)C(=O)NCC(=O)N1CCC[C@@H]1C(=O)N[C@@H](CCCNC(=N)N)C(=O)N[C@@H](CCCNC(=N)N)C(=O)N[C@@H](Cc1ccc3ccccc3c1)C(=O)N2 [Ex. 98] (cyclo(YRVCRG[dP]RR[2Nal]CYQK[dP]P); disulfide 4-11) | 3.9 | 41000 | 1
7 | N=C(N)NCCC[C@@H]1NC(=O)[C@@H]2CSSC[C@H](NC(=O)[C@H](Cc3ccc4ccccc4c3)NC(=O)[C@H](CCCNC(=N)N)NC(=O)[C@H](CCN)NC(=O)[C@H]3CCCN3C(=O)CNC1=O)C(=O)N[C@@H](Cc1ccc(O)cc1)C(=O)N[C@@H](CCCNC(N)=O)C(=O)N[C@@H](CCCCN)C(=O)N1CCC[C@@H]1C(=O)N1CCC[C@H]1C(=O)N[C@@H](Cc1ccc(O)cc1)C(=O)N[C@@H](CCCNC(=N)N)C(=O)N[C@@H](CCCNC(N)=O)C(=O)N2 [Ex. 134] (cyclo(YR[Cit]CRG[dP][Dab]R[2Nal]CY[Cit]K[dP]P); disulfide 4-11) | 1.7 | 21000 | 0
8 | N=C(N)NCCC[C@@H]1NC(=O)[C@@H]2CSSC[C@H](NC(=O)[C@H](Cc3ccc4ccccc4c3)NC(=O)[C@H](CCCNC(=N)N)NC(=O)[C@H](CCCNC(=N)N)NC(=O)[C@H]3CCCN3C(=O)CNC1=O)C(=O)N[C@@H](Cc1ccc(O)cc1)C(=O)N[C@@H](CCCCN)C(=O)N[C@@H](CCCCN)C(=O)N1CCC[C@@H]1C(=O)N1CCC[C@H]1C(=O)N[C@@H](Cc1ccc(O)cc1)C(=O)N[C@@H](CCCNC(=N)N)C(=O)N[C@@H](CCCNC(N)=O)C(=O)N2 [Ex. 79] (cyclo(YR[Cit]CRG[dP]RR[2Nal]CYKK[dP]P); disulfide 4-11) | 2.4 | 94000 | 0
9 | N=C(N)NCCC[C@@H]1NC(=O)[C@@H]2CSSC[C@H](NC(=O)[C@H](Cc3c[nH]c4ccccc34)NC(=O)[C@H](CCCNC(=N)N)NC(=O)[C@H](Cc3c[nH]cn3)NC(=O)[C@H]3CCCN3C(=O)CNC1=O)C(=O)N[C@@H](Cc1ccc(O)cc1)C(=O)N[C@@H](CCCNC(N)=O)C(=O)N[C@@H](CCCCN)C(=O)N1CCC[C@@H]1C(=O)N1CCC[C@H]1C(=O)N[C@@H](Cc1ccc(O)cc1)C(=O)N[C@@H](CCCNC(=N)N)C(=O)N[C@@H](CCCNC(N)=O)C(=O)N2 [Ex. 137] (cyclo(YR[Cit]CRG[dP]HRWCY[Cit]K[dP]P); disulfide 4-11) | 1.28 | 79000 | 0.5
10 | N=C(N)NCCC[C@@H]1NC(=O)[C@@H]2CSSC[C@H](NC(=O)[C@H](Cc3c[nH]c4ccccc34)NC(=O)[C@H](CCCNC(=N)N)NC(=O)[C@H](CCN)NC(=O)[C@H]3CCCN3C(=O)CNC1=O)C(=O)N[C@@H](Cc1ccc(O)cc1)C(=O)N[C@@H](CCC(N)=O)C(=O)N[C@@H](CCCCN)C(=O)N1CCC[C@@H]1C(=O)N1CCC[C@H]1C(=O)N[C@@H](Cc1ccc(O)cc1)C(=O)N[C@@H](CCCNC(=N)N)C(=O)N[C@@H](CCCNC(N)=O)C(=O)N2 [Ex. 109] (cyclo(YR[Cit]CRG[dP][Dab]RWCYQK[dP]P); disulfide 4-11) | 3 | 65000 | 0
11 | N=C(N)NCCC[C@@H]1NC(=O)[C@@H]2CSSC[C@H](NC(=O)[C@H](Cc3ccc4ccccc4c3)NC(=O)[C@H](CCCNC(=N)N)NC(=O)[C@H](Cc3ccc(F)cc3)NC(=O)[C@H]3CCCN3C(=O)CNC1=O)C(=O)N[C@@H](Cc1ccc(O)cc1)C(=O)N[C@@H](CCC(N)=O)C(=O)N[C@@H](CCCCN)C(=O)N1CCC[C@@H]1C(=O)N1CCC[C@H]1C(=O)N[C@@H](Cc1ccc(O)cc1)C(=O)N[C@@H](CCCNC(=N)N)C(=O)N[C@@H](CCCNC(N)=O)C(=O)N2 [Ex. 76] (cyclo(YR[Cit]CRG[dP][Phe(4-F)]R[2Nal]CYQK[dP]P); disulfide 4-11) | 5.6 | > 100000 | 0.1
12 | N=C(N)NCCC[C@@H]1NC(=O)[C@@H]2CSSC[C@H](NC(=O)[C@H](Cc3c[nH]c4ccccc34)NC(=O)[C@H](CCCN)NC(=O)[C@H](CCCNC(=N)N)NC(=O)[C@H]3CCCN3C(=O)CNC1=O)C(=O)N[C@@H](Cc1ccc(O)cc1)C(=O)N[C@@H](CCCNC(N)=O)C(=O)N[C@@H](CCCCN)C(=O)N1CCC[C@@H]1C(=O)N1CCC[C@H]1C(=O)N[C@@H](Cc1ccc(O)cc1)C(=O)N[C@@H](CCCNC(=N)N)C(=O)N[C@@H](CCCNC(N)=O)C(=O)N2 [Ex. 117] (cyclo(YR[Cit]CRG[dP]R[Orn]WCY[Cit]K[dP]P); disulfide 4-11) | 3.4 | 44000 | 0
13 | CC[C@H](C)[C@@H]1NC(=O)[C@H](CCCNC(=N)N)NC(=O)[C@H](Cc2ccc(O)cc2)NC(=O)[C@@H]2CCCN2C(=O)[C@H]2CCCN2C(=O)[C@H](CCCCN)NC(=O)[C@H](CCC(N)=O)NC(=O)[C@H](Cc2ccc(O)cc2)NC(=O)[C@@H]2CSSC[C@H](NC1=O)C(=O)N[C@@H](CCCNC(=N)N)C(=O)NCC(=O)N1CCC[C@@H]1C(=O)N[C@@H](CCCNC(=N)N)C(=O)N[C@@H](CCCNC(=N)N)C(=O)N[C@@H](Cc1ccc3ccccc3c1)C(=O)N2 [Ex. 71] (cyclo(YRICRG[dP]RR[2Nal]CYQK[dP]P); disulfide 4-11) | 2.7 | 34000 | 0.1
